{"source": "ChEMBL document CHEMBL5029158", "about": "“Design, structure-activity relationship study and biological evaluation of the thieno[3,2-c]isoquinoline scaffold as a potential anti-cancer agent” (Bioorg Med Chem Lett, 2021)", "key": {"A549 [1]": {"test_system": "A549", "assay": "Cytotoxicity against human A549 cells assessed as reduction in cell viability", "type": "functional, cell-based"}, "A549 [2]": {"test_system": "A549", "assay": "Potency index, ratio of […] for cytotoxicity against human A549 cells assessed as reduction in cell viability", "type": "functional"}, "Tubulin (Homo sapiens) [3]": {"target": "T1, Tubulin (Homo sapiens) (UniProt P68371+Q9H4B7+P0DPH7+P68366+Q13509+Q71U36+P04350+Q3ZCM7+P07437+P68363+Q9BQE3+Q6PEY2+Q13885+Q9BVA1+Q9BUF5)", "assay": "Inhibition of colchicine binding to tubulin (unknown origin) at 1 uM by fluorescence assay", "type": "protein-complex assay"}, "HCT-116": {"test_system": "HCT-116", "assay": "Cytotoxicity against human HCT-116 cells assessed as reduction in cell viability", "type": "functional, cell-based"}, "HeLa": {"test_system": "HeLa", "assay": "Cytotoxicity against human HeLa cells assessed as reduction in cell viability", "type": "functional, cell-based"}, "MDA-MB-231": {"test_system": "MDA-MB-231", "assay": "Cytotoxicity against human MDA-MB-231 cells assessed as reduction in cell viability", "type": "functional, cell-based"}, "[4]": {"assay": "Selectivity index, ratio of IC50 for cytotoxicity against human fibroblasts to IC50 for human HeLa cells", "type": "toxicity, cell-based", "details": "human fibroblasts versus HeLa cells, read-out: Selectivity Index"}, "Tubulin (Homo sapiens) [5]": {"target": "T1, Tubulin (Homo sapiens)", "assay": "Inhibition of microtubule (unknown origin) polymerization at 0.6 uM", "type": "protein-complex assay"}, "Fibroblast": {"test_system": "Fibroblast", "assay": "Cytotoxicity against human fibroblasts assessed as reduction in cell viability", "type": "cell-based"}, "HFF-1": {"test_system": "HFF-1", "assay": "Cytotoxicity against human HFF-1 cells assessed as reduction in cell viability", "type": "cell-based"}, "A549 [6]": {"test_system": "A549", "assay": "Cytotoxicity against human A549 cells assessed as cell death measured after 2 to 3 days", "type": "functional, cell-based", "details": "time 2-3 day"}, "A549 [7]": {"test_system": "A549", "assay": "Antitumor activity against human A549 cell assessed as disrupted in spheroid morphology at 0.5 to 1 uM measured after 6 days", "type": "functional, cell-based", "details": "dose 0.5-1 µM, time 6.0 day"}, "[8]": {"assay": "Selectivity index, ratio of IC50 for cytotoxicity against human fibroblasts to IC50 for human HCT-116 cells", "type": "toxicity, cell-based", "details": "human fibroblasts versus HCT-116 cells, read-out: Selectivity Index"}, "Tubulin (Homo sapiens) [9]": {"target": "T1, Tubulin (Homo sapiens)", "assay": "Inhibition of microtubule (unknown origin) polymerization at 5 uM", "type": "protein-complex assay"}, "[10]": {"assay": "Selectivity index, ratio of IC50 for cytotoxicity against human fibroblasts to IC50 for human A549 cells", "type": "toxicity, cell-based", "details": "human fibroblasts versus A549 cells, read-out: Selectivity Index"}, "[11]": {"assay": "Selectivity index, ratio of IC50 for cytotoxicity against human fibroblasts to IC50 for human MDA-MB-231 cells", "type": "toxicity, cell-based", "details": "human fibroblasts versus MDA-MB-231 cells, read-out: Selectivity Index"}, "A549 [12]": {"test_system": "A549", "assay": "Induction of mitotic arrest in human A549 cells assessed as reduction in microtubule network with fragmented spindle poles at 0.50 uM measured after 8 hrs by DAPI/ACA staining based fluorescence microscopic analysis", "type": "functional, cell-based", "details": "dose 0.5 µM"}}, "note": "Activity calls are given as the source filed them. The rule behind the calls is not given here."}
{"smiles": "COc1ccc(S(=O)(=O)N2Cc3ccccc3-c3sc(Cl)c(C)c32)cc1", "values": [{"measurement": "IC50", "setting": "A549 [1]", "result": 550, "unit": "nM"}, {"measurement": "Ratio IC50", "setting": "A549 [2]", "result": 34.3}]}
{"smiles": "O=S(=O)(c1cccs1)N1Cc2ccccc2-c2sccc21", "values": [{"measurement": "IC50", "setting": "A549 [1]", "result": "> 10000", "unit": "nM"}]}
{"smiles": "COc1ccc(S(=O)(=O)N2Cc3ccccc3-c3sc(Br)c(C)c32)cc1", "values": [{"measurement": "IC50", "setting": "A549 [1]", "result": 2800, "unit": "nM"}, {"measurement": "Ratio IC50", "setting": "A549 [2]", "result": 175}]}
{"smiles": "COc1ccc(S(=O)(=O)N2Cc3ccccc3-c3sccc32)cc1", "values": [{"measurement": "IC50", "setting": "A549 [1]", "result": 780, "unit": "nM"}]}
{"smiles": "CC(C)(C)c1ccc(S(=O)(=O)N2Cc3ccccc3-c3sc(Br)cc32)cc1", "values": [{"measurement": "IC50", "setting": "A549 [1]", "result": "> 10000", "unit": "nM"}, {"measurement": "Ratio IC50", "setting": "A549 [2]", "result": ">625"}]}
{"smiles": "Cc1cccc(S(=O)(=O)N2Cc3ccccc3-c3sc(Br)cc32)c1", "values": [{"measurement": "IC50", "setting": "A549 [1]", "result": 2300, "unit": "nM"}, {"measurement": "Ratio IC50", "setting": "A549 [2]", "result": 143.7}]}
{"smiles": "O=S(=O)(c1ccc(C(F)(F)F)cc1)N1Cc2ccccc2-c2sc(Br)cc21", "values": [{"measurement": "IC50", "setting": "A549 [1]", "result": "> 10000", "unit": "nM"}, {"measurement": "Ratio IC50", "setting": "A549 [2]", "result": ">625"}]}
{"smiles": "O=S(=O)(c1ccc(C(F)(F)F)cc1)N1Cc2ccccc2-c2sccc21", "values": [{"measurement": "IC50", "setting": "A549 [1]", "result": "> 10000", "unit": "nM"}]}
{"smiles": "CC[C@]1(O)C[C@@H]2CN(CCc3c([nH]c4ccccc34)[C@@](C(=O)OC)(c3cc4c(cc3OC)N(C)[C@H]3[C@@](O)(C(=O)OC)[C@H](OC(C)=O)[C@]5(CC)C=CCN6CC[C@]43[C@@H]65)C2)C1", "values": [{"measurement": "inhibition", "setting": "Tubulin (Homo sapiens) [3]", "result": "inactive"}]}
{"smiles": "CS(=O)(=O)N1Cc2ccccc2-c2sc(Br)cc21", "values": [{"measurement": "IC50", "setting": "A549 [1]", "result": "> 10000", "unit": "nM"}, {"measurement": "Ratio IC50", "setting": "A549 [2]", "result": ">625"}]}
{"smiles": "COc1cc2c(c(OC)c1OC)-c1ccc(OC)c(=O)cc1[C@@H](NC(C)=O)CC2", "note": "[COLCHICINE]", "values": [{"measurement": "IC50", "setting": "A549 [1]", "result": 16, "unit": "nM"}, {"measurement": "IC50", "setting": "HCT-116", "result": 22, "unit": "nM"}, {"measurement": "IC50", "setting": "HeLa", "result": 10, "unit": "nM"}]}
{"smiles": "COc1ccc(S(=O)(=O)N2Cc3ccccc3-c3sc(I)cc32)cc1", "values": [{"measurement": "IC50", "setting": "A549 [1]", "result": 780, "unit": "nM"}, {"measurement": "Ratio IC50", "setting": "A549 [2]", "result": 48.7}]}
{"smiles": "O=S(=O)(c1ccccc1)N1Cc2ccccc2-c2sc(Br)cc21", "values": [{"measurement": "IC50", "setting": "A549 [1]", "result": 1900, "unit": "nM"}, {"measurement": "Ratio IC50", "setting": "A549 [2]", "result": 118.7}]}
{"smiles": "COc1ccc(S(=O)(=O)N2Cc3ccccc3-c3sc(Br)cc32)cc1", "values": [{"measurement": "IC50", "setting": "MDA-MB-231", "result": 260, "unit": "nM"}, {"measurement": "selectivity ratio", "setting": "[4]", "result": 3.2}, {"measurement": "inhibition", "setting": "Tubulin (Homo sapiens) [5]", "result": "Active"}, {"measurement": "IC50", "setting": "A549 [1]", "result": 370, "unit": "nM"}, {"measurement": "IC50", "setting": "Fibroblast", "result": 1400, "unit": "nM"}, {"measurement": "IC50", "setting": "HFF-1", "result": 790, "unit": "nM"}, {"measurement": "Activity", "setting": "A549 [6]", "result": "Active"}, {"measurement": "Activity", "setting": "A549 [7]", "result": "Active"}, {"measurement": "Ratio IC50", "setting": "A549 [2]", "result": 23.1}, {"measurement": "inhibition", "setting": "Tubulin (Homo sapiens) [3]", "result": "Active"}, {"measurement": "selectivity ratio", "setting": "[8]", "result": 3.2}, {"measurement": "inhibition", "setting": "Tubulin (Homo sapiens) [9]", "result": "Active"}, {"measurement": "IC50", "setting": "HCT-116", "result": 430, "unit": "nM"}, {"measurement": "selectivity ratio", "setting": "[10]", "result": 3.8}, {"measurement": "IC50", "setting": "HeLa", "result": 430, "unit": "nM"}, {"measurement": "selectivity ratio", "setting": "[11]", "result": 5.3}, {"measurement": "Activity", "setting": "A549 [12]", "result": "inactive"}]}
{"smiles": "Cc1ccc(S(=O)(=O)N2Cc3ccccc3-c3sc(Br)cc32)cc1", "values": [{"measurement": "IC50", "setting": "A549 [1]", "result": 2100, "unit": "nM"}, {"measurement": "Ratio IC50", "setting": "A549 [2]", "result": 131.2}]}
{"smiles": "Cc1ccc(S(=O)(=O)N2Cc3ccccc3-c3sccc32)cc1", "values": [{"measurement": "IC50", "setting": "A549 [1]", "result": 3400, "unit": "nM"}]}
{"smiles": "COc1ccc(S(=O)(=O)N2Cc3ccccc3-c3scc(C)c32)cc1", "values": [{"measurement": "IC50", "setting": "A549 [1]", "result": 630, "unit": "nM"}, {"measurement": "Ratio IC50", "setting": "A549 [2]", "result": 39.3}]}
{"smiles": "COc1ccc(S(=O)(=O)N2Cc3ccccc3-c3sc(Cl)cc32)cc1", "values": [{"measurement": "IC50", "setting": "A549 [1]", "result": 430, "unit": "nM"}, {"measurement": "Ratio IC50", "setting": "A549 [2]", "result": 36.8}]}
{"smiles": "Cc1cccc(S(=O)(=O)N2Cc3ccccc3-c3sccc32)c1", "values": [{"measurement": "IC50", "setting": "A549 [1]", "result": 6000, "unit": "nM"}]}
{"smiles": "CS(=O)(=O)N1Cc2ccccc2-c2sccc21", "values": [{"measurement": "IC50", "setting": "A549 [1]", "result": "> 10000", "unit": "nM"}]}
{"smiles": "CC(C)(C)c1ccc(S(=O)(=O)N2Cc3ccccc3-c3sccc32)cc1", "values": [{"measurement": "IC50", "setting": "A549 [1]", "result": "> 10000", "unit": "nM"}]}
{"smiles": "O=S(=O)(c1ccccc1)N1Cc2ccccc2-c2sccc21", "values": [{"measurement": "IC50", "setting": "A549 [1]", "result": 5200, "unit": "nM"}]}
{"smiles": "COC(=O)Nc1nc2cc(C(=O)c3cccs3)ccc2[nH]1", "values": [{"measurement": "inhibition", "setting": "Tubulin (Homo sapiens) [3]", "result": "Active"}]}
